# Test results: US20220137060A1, “FULL LENGTH KINASE ACTIVITY-CONFORMATION REPORTER” (UNIVERSITAT INNSBRUCK, priority 2016, published 2022)
# “Also recorded” adds a separate entry of the source.
# Experiments:
# Assay type in all cases: cell-based
# BRAF-V600E [1] = target: T1, BRAF-V600E (Homo sapiens, UniProt P15056, V600E); test: Intramolecular Rluc PCA reporter F[1]-BRAF(V600E)-F[2], transiently transfected HEK293 cells; conditions: HEK293, 1 μM; for Effect on reporter bioluminescence signal / conformation: BRAF V600E reporter, 3 h treatments (FIG. 5B, 6B)
# T1 construct: Renilla luciferase PCA fragment F[1]; Renilla luciferase PCA fragment F[2]; expressed in transfected cells; host or cells: HEK293 (transient, pcDNA3.1)
# Procedure: (§1) Cell culture and antibodies. HEK293 and SW480 cells were grown in DMEM supplemented with 10% (vol/vol) FBS. Cells were passaged three times a week to keep the cells in culture. Transient transfections were performed with Transfectin reagent (Bio-Rad, #1703350). […] The primary antibody used was anti-BRAF(F-7) (Santa Cruiz Biotechnology, #sc-5284).
# (§2) Expression constructs. The Rluc PCA hybrid proteins F[1]-BRAF-F[2] and F[1]-BRAF(V600E)-F[2] have been generated using the identical cloning approach. Following PCR amplification of the human BRAF or BRAF(V600E) gene, the coding region of the BRAF protein (SEQ ID No: 2 or 5) was fused N-terminally with F[1] (SEQ ID No: 13) and C-terminally with F[2] (SEQ ID No: 17) of the Rluc PCA coding region. In addition. the sequence of two interjacent 10-aa linkers (GGGGS)2 (SEQ ID No: 18) was integrated by cloning. As vector backbone we used the pcDNA3.1 plasmid. The MEK1 expression constructs (s. SEQ ID No: 23) and the Gluc PCA based BRAF reporter (s. SEQ ID No: 24) were prepared analogously.
# Mutagenesis. Site directed mutagenesis have been performed to generate following mutations in the reporter constructs: V600E, V600K, V600R, D594G, and G469A in BRAF and S218A and the S218E/S222E double mutation in MEK1.
# (§3) Renilla/Gaussia luciferase PCA experiments. Cells were grown in DMEM supplemented with 10% FBS. Indicated versions of the Rluc PCA based biosensor were transiently overexpressed in 24-well plate format. 48 hours post-transfection, the growth medium was partially removed and different compounds added with concentrations as indicated in the figure legends. To measure the dose-dependent effect of the lead molecules (candidate compounds) on the intramolecular Rluc PCA reporter, the attached cells were treated with different concentrations and for different time-frames. The time-dependent consequences of the lead compounds on kinase conformations were recorded with a final compound concentration of 1 μM. For the Rluc PCA measurements the growth medium was carefully removed and the cells were washed with PBS. Cells were resuspended in PBS and the cell suspensions were transferred to 96-well plates and subjected to luminescence analysis using the LMaxTM-II-384 luminometer (Molecular Devices). Rluc luminescence signals were integrated for 10 seconds with a delay time of 3 seconds following addition of 20 μl of the Rluc substrate benzyl-coelenterazine (5 μM; Nanolight, #301) in PBS with a concentration of 25 nM. Dose-dependent effects of drug exposure on luminescence signals originating from BRAF conformations were compared using indicated controls. Cells were collected after PCA measurements and lysed with Laemmli sample buffer to control the protein expression levels. In case of Gluc reporters, coelenterazine was used as luminescence substrate.
# wild type BRAF [2] = target: T2, wild type BRAF (Homo sapiens, UniProt P15056); test: Intramolecular Rluc PCA reporter F[1]-BRAF-F[2] (wild type), transiently transfected HEK293 cells; design: Renilla luciferase PCA fragment F[1]; Renilla luciferase PCA fragment F[2]; expressed in transfected cells; host or cells: HEK293 (transient, pcDNA3.1); conditions: for Effect on reporter luminescence signal: HEK293, 1 μM, 3 h treatments (FIG. 5A, 6A)
# Procedure: as §1, §2, §3
# Target sequence in this assay (P15056 with tags, fused parts or gaps): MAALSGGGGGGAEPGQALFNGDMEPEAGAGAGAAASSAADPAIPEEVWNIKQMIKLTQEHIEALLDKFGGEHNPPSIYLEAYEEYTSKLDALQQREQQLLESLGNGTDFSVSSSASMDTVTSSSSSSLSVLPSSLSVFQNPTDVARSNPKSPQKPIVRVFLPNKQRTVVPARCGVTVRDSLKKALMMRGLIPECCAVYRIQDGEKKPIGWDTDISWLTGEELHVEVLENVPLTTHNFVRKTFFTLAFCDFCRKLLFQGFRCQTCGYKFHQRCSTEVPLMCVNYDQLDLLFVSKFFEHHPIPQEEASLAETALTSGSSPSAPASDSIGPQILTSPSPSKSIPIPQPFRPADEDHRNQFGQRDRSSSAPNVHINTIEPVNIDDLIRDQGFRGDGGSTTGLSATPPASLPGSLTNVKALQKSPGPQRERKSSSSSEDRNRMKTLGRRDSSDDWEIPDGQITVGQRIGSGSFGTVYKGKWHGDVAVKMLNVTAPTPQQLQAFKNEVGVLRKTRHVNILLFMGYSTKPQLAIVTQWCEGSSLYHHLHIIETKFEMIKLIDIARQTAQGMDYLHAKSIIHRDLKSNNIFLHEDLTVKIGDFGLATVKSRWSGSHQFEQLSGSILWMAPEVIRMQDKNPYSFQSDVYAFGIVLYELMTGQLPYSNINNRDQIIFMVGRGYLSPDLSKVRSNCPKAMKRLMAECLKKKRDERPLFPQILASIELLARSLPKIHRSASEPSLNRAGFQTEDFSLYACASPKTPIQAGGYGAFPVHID
# BRAF V600K = BRAF V600K (Homo sapiens, UniProt P15056, V600K); test: Intramolecular Rluc PCA mutant BRAF reporter (V600K), transiently transfected HEK293 cells; conditions: HEK293, 1 μM, 3 h treatments (FIG. 5B)
# Procedure: as §1
# (§4) Expression constructs. The Rluc PCA hybrid proteins F[1]-BRAF-F[2] and F[1]-BRAF(V600E)-F[2] have been generated using the identical cloning approach. Following PCR amplification of the human BRAF or BRAF(V600E) gene, the coding region of the BRAF protein (SEQ ID No: 2 or 5) was fused N-terminally with F[1] (SEQ ID No: 13) and C-terminally with F[2] (SEQ ID No: 17) of the Rluc PCA coding region. […]
# (§5) Renilla/Gaussia luciferase PCA experiments. […] The time-dependent consequences of the lead compounds on kinase conformations were recorded with a final compound concentration of 1 μM. […] Cells were resuspended in PBS and the cell suspensions were transferred to 96-well plates and subjected to luminescence analysis using the LMaxTM-II-384 luminometer (Molecular Devices). Rluc luminescence signals were integrated for 10 seconds with a delay time of 3 seconds following addition of 20 μl of the Rluc substrate benzyl-coelenterazine (5 μM; Nanolight, #301) in PBS with a concentration of 25 nM. […] In case of Gluc reporters, coelenterazine was used as luminescence substrate.
# BRAF V600R = BRAF V600R (Homo sapiens, UniProt P15056, V600R); test: Intramolecular Rluc PCA mutant BRAF reporter (V600R), transiently transfected HEK293 cells; conditions: HEK293, 1 μM, 3 h treatments (FIG. 5B)
# Procedure: as §1, §4, §5
# BRAF D594G = BRAF D594G (Homo sapiens, UniProt P15056, D594G); test: Intramolecular Rluc PCA mutant BRAF reporter (D594G), transiently transfected HEK293 cells; conditions: HEK293, 1 μM, 3 h treatments (FIG. 5B)
# Procedure: as §1, §4, §5
# BRAF G469A = BRAF G469A (Homo sapiens, UniProt P15056, G469A); test: Intramolecular Rluc PCA mutant BRAF reporter (G469A), transiently transfected HEK293 cells; conditions: HEK293, 1 μM, 3 h treatments (FIG. 5B)
# Procedure: as §1, §4, §5
# BRAF-V600E [3] = target: T1, BRAF-V600E; test: Intramolecular Gluc PCA reporter GlucF[1]-BRAF-V600E-GlucF[2], transiently transfected HEK293 cells; conditions: HEK293, 1 μM, 3 h treatments (FIG. 8)
# Procedure: as §1, §4, §5
# wild type BRAF [4] = target: T2, wild type BRAF; test: Intramolecular Gluc PCA reporter GlucF[1]-BRAF-GlucF[2] (wild type), transiently transfected HEK293 cells; conditions: HEK293, 1 μM, 3 h treatments (FIG. 8)
# Procedure: as §1, §4, §5
# Target sequence in this assay (P15056 with tags, fused parts or gaps): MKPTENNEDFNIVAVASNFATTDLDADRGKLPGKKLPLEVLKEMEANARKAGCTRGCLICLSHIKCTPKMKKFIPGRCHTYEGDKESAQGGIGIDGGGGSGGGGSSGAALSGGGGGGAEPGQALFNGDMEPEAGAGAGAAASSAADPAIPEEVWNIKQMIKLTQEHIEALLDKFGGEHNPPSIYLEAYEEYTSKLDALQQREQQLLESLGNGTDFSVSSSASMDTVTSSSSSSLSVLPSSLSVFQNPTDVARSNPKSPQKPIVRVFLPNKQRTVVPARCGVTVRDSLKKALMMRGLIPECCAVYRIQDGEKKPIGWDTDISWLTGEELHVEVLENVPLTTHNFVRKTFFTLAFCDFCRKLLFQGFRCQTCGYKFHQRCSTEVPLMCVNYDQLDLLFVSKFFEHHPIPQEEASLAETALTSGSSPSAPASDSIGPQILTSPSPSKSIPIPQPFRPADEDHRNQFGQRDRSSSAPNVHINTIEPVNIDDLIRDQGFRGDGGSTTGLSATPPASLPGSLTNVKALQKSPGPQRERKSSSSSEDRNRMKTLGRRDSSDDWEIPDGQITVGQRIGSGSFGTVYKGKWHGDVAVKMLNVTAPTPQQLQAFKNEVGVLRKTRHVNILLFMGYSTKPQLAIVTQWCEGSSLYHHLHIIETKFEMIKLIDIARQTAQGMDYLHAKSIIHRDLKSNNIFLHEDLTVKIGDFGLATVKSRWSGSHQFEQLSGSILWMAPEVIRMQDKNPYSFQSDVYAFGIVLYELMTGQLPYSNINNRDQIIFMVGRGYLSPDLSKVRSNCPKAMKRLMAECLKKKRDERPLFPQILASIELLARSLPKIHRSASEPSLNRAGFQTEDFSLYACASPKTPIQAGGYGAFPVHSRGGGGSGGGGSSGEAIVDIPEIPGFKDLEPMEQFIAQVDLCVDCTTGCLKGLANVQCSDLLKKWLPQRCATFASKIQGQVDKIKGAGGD
# T1 sequence (P15056 with tags, fused parts or gaps V600E): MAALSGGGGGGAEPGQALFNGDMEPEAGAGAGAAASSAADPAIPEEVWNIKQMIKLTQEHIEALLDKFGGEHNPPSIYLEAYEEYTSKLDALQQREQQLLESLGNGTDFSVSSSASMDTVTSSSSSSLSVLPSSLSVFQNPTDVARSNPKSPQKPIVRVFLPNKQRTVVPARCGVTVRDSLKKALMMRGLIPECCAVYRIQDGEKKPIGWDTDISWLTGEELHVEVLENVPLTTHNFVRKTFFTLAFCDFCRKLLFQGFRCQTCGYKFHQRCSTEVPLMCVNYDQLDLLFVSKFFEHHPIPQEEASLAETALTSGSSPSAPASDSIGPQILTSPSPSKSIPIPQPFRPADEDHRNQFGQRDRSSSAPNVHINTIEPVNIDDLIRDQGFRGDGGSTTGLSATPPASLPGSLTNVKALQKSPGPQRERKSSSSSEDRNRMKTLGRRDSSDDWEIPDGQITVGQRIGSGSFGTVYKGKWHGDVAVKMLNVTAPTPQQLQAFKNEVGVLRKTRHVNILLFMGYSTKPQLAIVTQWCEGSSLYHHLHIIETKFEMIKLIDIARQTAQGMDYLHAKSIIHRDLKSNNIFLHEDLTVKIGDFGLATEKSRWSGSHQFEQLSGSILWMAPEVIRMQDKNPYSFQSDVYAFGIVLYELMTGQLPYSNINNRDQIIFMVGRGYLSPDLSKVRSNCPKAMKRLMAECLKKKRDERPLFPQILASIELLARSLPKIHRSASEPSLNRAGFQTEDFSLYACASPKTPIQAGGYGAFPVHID
# Chain of BRAF V600R (P15056 with tags, fused parts or gaps V600R): as the sequence (P15056 with tags, fused parts or gaps V600E) above, with E600R counted along it
# Chain of BRAF G469A (P15056 with tags, fused parts or gaps G469A): as the sequence (P15056 with tags, fused parts or gaps V600E) above, with G469A, E600V counted along it
# Chain of BRAF D594G (P15056 with tags, fused parts or gaps D594G): as the sequence (P15056 with tags, fused parts or gaps V600E) above, with D594G, E600V counted along it
# Chain of BRAF V600K (P15056 with tags, fused parts or gaps V600K): as the sequence (P15056 with tags, fused parts or gaps V600E) above, with E600K counted along it
SMILES,Effect on reporter bioluminescence signal / conformation (BRAF-V600E [1]),Effect on reporter luminescence signal (wild type BRAF [2]),"Time-dependent effect on reporter conformation (Rluc PCA signal) (BRAF-V600E [1]; BRAF-V600E reporter, up to 3 h (FIG. 4))",Effect on reporter bioluminescence signal / conformation (BRAF V600K),Effect on reporter bioluminescence signal / conformation (BRAF V600R),Effect on reporter bioluminescence signal / conformation (BRAF D594G),Effect on reporter bioluminescence signal / conformation (BRAF G469A),Effect on Gluc PCA luciferase signal / conformation (BRAF-V600E [3]),Effect on Gluc PCA luciferase signal / conformation (wild type BRAF [4]),"Time-dependent effect on reporter conformation (Rluc PCA signal) (wild type BRAF [2]; HEK293, 1 μM (FIG. 4))"
N#CC(=C(/N)Sc1ccccc1N)/C(C#N)=C(\N)Sc1ccccc1N [U0126],exclusively influenced by the BRAF specific inhibitors,only slight changes in the luminescence signal,–,–,–,–,–,–,–,–
COC(=O)N[C@@H](C)CNc1nccc(-c2cn(C(C)C)nc2-c2cc(Cl)cc(NS(C)(=O)=O)c2F)n1 [encorafenib],shift to the closed conformation,only slight changes in the luminescence signal,–,–,–,–,–,–,–,–
O=C(c1c(F)ccc(NS(=O)(=O)N2CC[C@@H](F)C2)c1F)c1c[nH]c2ncc(-c3cnc(C4CC4)nc3)cc12 [PLX8394],significant shift to the closed conformation,not susceptible; also recorded: only slight changes in the luminescence signal,immediate shift of the BRAF-V600E reporter to the closed conformation was observed increasing up to 3 h,significant shift to the closed conformation,significant shift to the closed conformation,significant shift to the closed conformation,significant shift to the closed conformation,enhanced the luciferase signal exclusively with the V600E BRAF mutant,not affected,not affected
COc1cc(F)c(F)c(Nc2ccc(I)cc2F)c1NS(=O)(=O)C1(C[C@H](O)CO)CC1 [refametinib],exclusively influenced by the BRAF specific inhibitors,only slight changes in the luminescence signal,–,–,–,–,–,–,–,–
CC(C)(C)c1nc(-c2cccc(NS(=O)(=O)c3c(F)cccc3F)c2F)c(-c2ccnc(N)n2)s1 [dabrafenib],shift to the closed conformation,only slight changes in the luminescence signal,–,–,–,–,–,–,–,–
